# Measured values from the supplement of paper PMC10307832.
# Tests used:
# Assay in all cases: relative viability (nuclei count vs DMSO), 5 days (fraction); higher = more cells survive
# [1] = test system: EKVX
# Summary of the method: (§1)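 Each reported value is a median over duplicate plates. It expresses relative viability: treated-well nuclei count divided by vehicle-well nuclei count. Lung cancer cell lines in 1536-well plates were dosed by pin tool a day after seeding, alone with one drug or with a fixed anchor-drug dose plus five library-drug doses (not always all listed) in √10 steps, and nuclei were counted after 5 days.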
# [2] = test system: ABC-1
# Summary of the method: as §1
# [3] = test system: NCI-H1666
# Summary of the method: as §1
# [4] = test system: 201T
# Summary of the method: as §1
# [5] = test system: COR-L 105
# Summary of the method: as §1
# [6] = test system: NCI-H661
# Summary of the method: as §1
# [7] = test system: PC-14
# Summary of the method: as §1
# [8] = test system: HCC-366
# Summary of the method: as §1
# [9] = test system: NCI-H1437
# Summary of the method: as §1
# [10] = test system: BEN
# Summary of the method: as §1
compound,measurement,setting,value
NC(=O)Nc1cc(-c2cccc(F)c2)sc1C(=O)N[C@H]1CCCNC1 [AZD7762] + C[C@]1(O)C[C@@H](c2nc(-c3ccc4ccc(-c5ccccc5)nc4c3)c3c(N)nccn32)C1 [Linsitinib] (partner 1 µM),relative viability,[1]; first compound 0.01 µM,0.972
same,relative viability,[1]; first compound 0.03162 µM,0.971
same,relative viability,[1]; first compound 0.1 µM,0.844
same,relative viability,[1]; first compound 0.3162 µM,0.873
same,relative viability,[1]; first compound 1 µM,0.507
same,relative viability,[2]; first compound 0.01 µM,1.08
same,relative viability,[2]; first compound 0.03162 µM,0.839
same,relative viability,[2]; first compound 0.1 µM,0.925
same,relative viability,[2]; first compound 0.3162 µM,0.409
same,relative viability,[2]; first compound 1 µM,0.278
same,relative viability,[3]; first compound 0.01 µM,0.845
same,relative viability,[3]; first compound 0.03162 µM,1.02
same,relative viability,[3]; first compound 0.1 µM,1.05
same,relative viability,[3]; first compound 0.3162 µM,0.868
same,relative viability,[3]; first compound 1 µM,0.565
same,relative viability,[4]; first compound 0.01 µM,1.04
same,relative viability,[4]; first compound 0.03162 µM,1.06
same,relative viability,[4]; first compound 0.1 µM,1.1
same,relative viability,[4]; first compound 0.3162 µM,1.09
same,relative viability,[4]; first compound 1 µM,0.969
same,relative viability,[5]; first compound 0.01 µM,0.855
same,relative viability,[5]; first compound 0.03162 µM,0.921
same,relative viability,[5]; first compound 0.1 µM,0.748
same,relative viability,[5]; first compound 0.3162 µM,0.662
same,relative viability,[5]; first compound 1 µM,0.393
same,relative viability,[6]; first compound 0.01 µM,0.681
same,relative viability,[6]; first compound 0.03162 µM,0.546
same,relative viability,[6]; first compound 0.1 µM,0.444
same,relative viability,[6]; first compound 0.3162 µM,0.501
same,relative viability,[6]; first compound 1 µM,0.293
same,relative viability,[7]; first compound 0.01 µM,0.975
same,relative viability,[7]; first compound 0.03162 µM,0.994
same,relative viability,[7]; first compound 0.1 µM,0.995
same,relative viability,[7]; first compound 0.3162 µM,0.891
same,relative viability,[7]; first compound 1 µM,0.425
same,relative viability,[8]; first compound 0.01 µM,0.587
same,relative viability,[8]; first compound 0.03162 µM,0.666
same,relative viability,[8]; first compound 0.1 µM,0.607
same,relative viability,[8]; first compound 0.3162 µM,0.255
same,relative viability,[8]; first compound 1 µM,0.0442
same,relative viability,[9]; first compound 0.01 µM,1.06
same,relative viability,[9]; first compound 0.03162 µM,0.991
same,relative viability,[9]; first compound 0.1 µM,0.982
same,relative viability,[9]; first compound 0.3162 µM,1.04
same,relative viability,[9]; first compound 1 µM,0.86
same,relative viability,[10]; first compound 0.01 µM,1.04
same,relative viability,[10]; first compound 0.03162 µM,0.892
same,relative viability,[10]; first compound 0.1 µM,0.797
same,relative viability,[10]; first compound 0.3162 µM,0.829
same,relative viability,[10]; first compound 1 µM,0.643
